Assay results taken from patent US20170265465A1, “BIORATIONAL TREATMENT PRODUCTS AND METHODS OF USING SAME” (Board of Trustees of Michigan State University, priority 2014, published 2017).

Assays:
Format in all cases: in vivo
[1] = system: creeping bentgrass (Argostis palustris) fairway; assay: Example 2, 2013 urea (46-0-0)/canola oil study: turfgrass quality rating; conditions: scale 1-9, 7 = acceptable
Excerpt: This study was established on an irrigated, creeping bentgrass (Argostis palustris) fairway (˜0.5 in (1.3 cm) height of cut) on the same research center as in Example 1. The study was established in four replications of a randomized block design, using 2 ft.×10.5 ft. (0.6 m×3.2 m) plots with 6 in. (0.15 m) alleys. Prior to the study, diseases were controlled with as-needed fungicide applications. Fertility was maintained at approximately 0.1 lb. N/1000 ft^2 (0.49 g/m^2)/mo. […] Turfgrass quality ratings and biomass ratings were performed as described in Example 1. Clippings were also collected as described in Example 1.
Treatments of sprayable urea (46-0-0) (The Andersons, Inc.) hereinafter “Urea (46-0-0)” and Civitas/Harmonizer fungicide/turf pigment (Suncor Energy Corp.) were applied initially on Aug. 22, 2013.

[2] = system: creeping bentgrass (Argostis palustris) fairway; assay: Example 2: visual growth (biomass) rating; conditions: scale 1 = least, 9 = most increase
[3] = system: creeping bentgrass (Argostis palustris) fairway; assay: Example 2: clippings (biomass) dry weight
Description: Objective biomass ratings were also performed based on an increase in dried weight of clippings. Clippings were collected over pre-measured plot areas in each treatment replicate using a Toro® brand walk-behind greens mower Model […] 8000 at the height described in this Example and dried in a drying oven (60° C.) for approximately 48 hours before being weighed. […] Prior to the study, diseases were controlled with as-needed fungicide applications. Fertility was maintained at approximately 0.1 lb.

[4] = system: irrigated putting green; assay: Example 15, 2016 bio-adjuvant/fertility study: visual turfgrass quality rating; conditions: scale 1-9 (1 = worst, 9 = best, 7 = acceptable)
Description: (§1) The study was established in four replications of a randomized block design utilizing 2 ft.×21 ft. plots with 6 inch alleys. Treatments were initially applied on Sep. 13, 2016 with the same sprayer and under the same conditions described in Example 1. Turfgrass quality ratings and biomass ratings were performed as described in Example 1. The plots were trimmed on September 19, October 8, and Oct. 24, 2016 and clippings were also collected as described in Example 1.
(§2) Treatments were re-applied on Sep. 28, 2016 and Oct. 11, 2016. Turfgrass visual growth and quality ratings were taken periodically, along with turfgrass color ratings as taken with a Spectrum Technologies, Inc. TCM 500 NDVI Color Meter and a Spectrum Technologies, Inc. FieldScout CM 1000 Chlorophyll Meter. The study was irrigated as needed to prevent wilt. No background fertility was applied to the study area. The area was sprayed with 26GT fungicide on Sep. 27, 2016 to control dollar spot disease.

[5] = system: irrigated putting green; assay: Example 15: visual turfgrass growth rating; conditions: scale 1-5 (1 = least, 5 = most)
Description: as §1, §2

[6] = system: irrigated putting green; assay: Example 15: turfgrass color rating, TCM 500 NDVI Color Meter; conditions: Sept. 16, TCM 500 NDVI Turf Color Meter
Description: as §1, §2

[7] = system: irrigated putting green; assay: Example 15: turfgrass color (chlorophyll) rating, FieldScout CM 1000 Chlorophyll Meter
Description: as §1, §2
The turfgrass color (chlorophyll) rating of Oct.

[8] = system: irrigated putting green; assay: Example 15: dew rating; conditions: Sept. 15, visual scale 1 = least
Description: as §1, §2
Dew reduction (Table 25) is directly related to the amount of bio-adjuvant applied, specifically, the amount of canola oil in the treatment. Dew reduction is relevant to disease control because it can translate into reduced foliar disease pressure, and reduced frost accumulation. […] 15, 2016.

[9] = system: irrigated putting green; assay: Example 15: dried clipping weights; conditions: application interval 14 days; for All Clippings (Dried), Mean Total Clippings: Sept 19-Oct. 24
Description: Some biomass ratings were subjective visual estimations based on appearance of a combination of increased biomass and increased density on a 1 (least increase) to 9 (most increase) scale. Objective biomass ratings were also performed based on an increase in dried weight of clippings. Clippings were collected over pre-measured plot areas in each treatment replicate using a Toro® brand walk-behind greens mower Model Greensmaster 8000 at the height described in this Example and dried in a drying oven (60° C.) for approximately 48 hours before being weighed.
as §1, §2

[10] = Sep. 3, 2013, one application, per 1000 ft^2, as far as in the treatment: Urea 0.1 lb. N, Canola Oil Concentrate/Bio-Adjuvant 10 fl. oz., Civitas 8 + Harmonizer 0.5 fl. oz.
[11] = Sep. 3, 2013, Urea 0.2 lb. N/1000 ft^2, Canola Oil 10 fl. oz. or Civitas 8 + Harmonizer 0.5 fl. oz. where in the treatment
[12] = Sep. 3, 2013, Urea 0.3 lb. N/1000 ft^2, Canola Oil Bio-Adjuvant 10 fl. oz. or Civitas 8 + Harmonizer 0.5 fl. oz. where in the treatment
[13] = Trt. 4, 0.1 lb N/1000 sq. ft. /14 days, Oct. 6
[14] = Trt. 5, 0.05 lb N/1000 sq. ft. /14 days, Oct. 6
[15] = Trt. 4, 0.1 lb N/1000 sq. ft. /14 days
[16] = Trt. 5, 0.05 lb N/1000 sq. ft. /14 days

NC(N)=O [Urea (46-0-0), urea]
Turfgrass Quality [1, 10]: 6.5 ef
Turfgrass Quality [1, 11]: 6.75 de
Turfgrass Quality [1, 12]: 7.5 bc
Visual Growth (Biomass) [2, 10]: 3 ef
Visual Growth (Biomass) [2, 11]: 3.75 de
Visual Growth (Biomass) [2, 12]: 3.75 de
Clippings (Biomass) Dry wt (g) [3, 10]: 7.21 f g
Clippings (Biomass) Dry wt (g) [3, 11]: 7.87 f g
Clippings (Biomass) Dry wt (g) [3, 12]: 9.77 bcd g
Visual Turfgrass Quality, MEAN ([4]; Trt. 4, 0.1 lb N/1000 sq. ft. /14 days, Oct. 1 (3 DAT)): 7.0
Visual Turfgrass Quality, MEAN ([4]; Trt. 4, 0.1 lb N/1000 sq. ft. /14 days, Oct. 6 (8 DAT)): 7.3
Visual Turfgrass Quality, MEAN ([4]; Trt. 4, 0.1 lb N/1000 sq. ft. /14 days, Sept. 19 (6 DAT)): 7.3
Visual Turfgrass Quality, MEAN ([4]; Trt. 5, 0.05 lb N/1000 sq. ft. /14 days, Oct. 1 (3 DAT)): 7.0
Visual Turfgrass Quality, MEAN ([4]; Trt. 5, 0.05 lb N/1000 sq. ft. /14 days, Oct. 6 (8 DAT)): 6.8
Visual Turfgrass Quality, MEAN ([4]; Trt. 5, 0.05 lb N/1000 sq. ft. /14 days, Sept. 19 (6 DAT)): 6.8
Visual Turfgrass Growth, MEAN [5, 13]: 2.5
Visual Turfgrass Growth, MEAN ([5]; Trt. 4, 0.1 lb N/1000 sq. ft. /14 days, Sept. 19): 2.5
Visual Turfgrass Growth, MEAN ([5]; Trt. 4, 0.1 lb N/1000 sq. ft. /14 days, Sept. 25): 3.8
Visual Turfgrass Growth, MEAN [5, 14]: 2.3
Visual Turfgrass Growth, MEAN ([5]; Trt. 5, 0.05 lb N/1000 sq. ft. /14 days, Sept. 19): 2.8
Visual Turfgrass Growth, MEAN ([5]; Trt. 5, 0.05 lb N/1000 sq. ft. /14 days, Sept. 25): 3.3
Turfgrass Color (Greenness), MEAN, NDVI reading [6, 15]: 0.761
Turfgrass Color (Greenness), MEAN, NDVI reading [6, 16]: 0.755
Turfgrass Color (Greenness), MEAN, chlorophyll meter reading [7, 13]: 352.5
Turfgrass Color (Greenness), MEAN, chlorophyll meter reading ([7]; Trt. 4, 0.1 lb N/1000 sq. ft. /14 days, Oct. 25): 272.3
Turfgrass Color (Greenness), MEAN, chlorophyll meter reading [7, 14]: 352.3
Turfgrass Color (Greenness), MEAN, chlorophyll meter reading ([7]; Trt. 5, 0.05 lb N/1000 sq. ft. /14 days, Oct. 25): 261
Dew rating, Mean [8, 15]: 5.0
Dew rating, Mean [8, 16]: 5.0
Dried Clipping Weight, Mean ([9]; Trt. 4, 0.1 lb N/1000 sq. ft., Oct. 8): 62.5 gms
Dried Clipping Weight, Mean ([9]; Trt. 4, 0.1 lb N/1000 sq. ft., Oct. 24): 55.8 gms
All Clippings (Dried), Mean Total Clippings ([9]; Trt. 4, 0.1 lb N/1000 sq. ft.): 189.8 gms
Dried Clipping Weight, Mean ([9]; Trt. 4, 0.1 lb N/1000 sq. ft., Sept. 19): 71.5 gms
Dried Clipping Weight, Mean ([9]; Trt. 5, 0.05 lb N/1000 sq. ft., Oct. 8): 59.5 gms
Dried Clipping Weight, Mean ([9]; Trt. 5, 0.05 lb N/1000 sq. ft., Oct. 24): 46.5 gms
All Clippings (Dried), Mean Total Clippings ([9]; Trt. 5, 0.05 lb N/1000 sq. ft.): 177.3 gms
Dried Clipping Weight, Mean ([9]; Trt. 5, 0.05 lb N/1000 sq. ft., Sept. 19): 71.3 gms
